Results: US9464084B2, “P2X7 modulators” (Janssen Pharmaceutica NV, priority 2013, dated 2016)

Legend:
[1] = biological target: rat P2X7 (Rattus norvegicus (Rat), UniProt Q64663); experiment: Ca2+ flux (FLIPR) in 1321N1 cells expressing recombinant rat P2X7 channel; assay type: cell-based; conditions: 250 μM BzATP;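 note: Calcium-4 dye fluorescence change read 180 s after agonist addition, following 30 min cell preincubation with test compound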
Protocol: (§1) Cells were seeded at a density of 25000 cells/well (96-well clear bottom black walled plates) in 100 μl volume/well. On the day of the experiment, cell plates were washed with assay buffer, containing (in mM): 130 NaCl, 2 KCl, 1 CaCl2, 1 MgCl2, 10 HEPES, 5 glucose; pH 7.40 and 300 mOs. After the wash, cells were loaded with the Calcium-4 dye (Molecular Device) and incubated in the dark for 60 minutes. Test compounds were prepared at 250× the test concentration in neat DMSO. Intermediate 96-well compound plates were prepared by transferring 1.2 μL of the compound into 300 μL of assay buffer. A further 3× dilution occurred when transferring 50 μL/well of the compound plate to 100 μL/well in the cell plate. Cells were incubated with test compounds and dye for 30 minutes. […] The fluorescence change was measured 180 seconds after adding the agonist.

[2] = biological target: T1, P2X7 (Homo sapiens (Human), UniProt Q99572); experiment: Ca2+ flux (FLIPR) in 1321N1 cells expressing recombinant human P2X7 channel; assay type: cell-based; conditions: 250 μM BzATP;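 note: Calcium-4 dye-loaded cells exposed to compound for 30 min before agonist addition, fluorescence change read 180 s after agonist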
T1 sequence (Q99572 whole entry): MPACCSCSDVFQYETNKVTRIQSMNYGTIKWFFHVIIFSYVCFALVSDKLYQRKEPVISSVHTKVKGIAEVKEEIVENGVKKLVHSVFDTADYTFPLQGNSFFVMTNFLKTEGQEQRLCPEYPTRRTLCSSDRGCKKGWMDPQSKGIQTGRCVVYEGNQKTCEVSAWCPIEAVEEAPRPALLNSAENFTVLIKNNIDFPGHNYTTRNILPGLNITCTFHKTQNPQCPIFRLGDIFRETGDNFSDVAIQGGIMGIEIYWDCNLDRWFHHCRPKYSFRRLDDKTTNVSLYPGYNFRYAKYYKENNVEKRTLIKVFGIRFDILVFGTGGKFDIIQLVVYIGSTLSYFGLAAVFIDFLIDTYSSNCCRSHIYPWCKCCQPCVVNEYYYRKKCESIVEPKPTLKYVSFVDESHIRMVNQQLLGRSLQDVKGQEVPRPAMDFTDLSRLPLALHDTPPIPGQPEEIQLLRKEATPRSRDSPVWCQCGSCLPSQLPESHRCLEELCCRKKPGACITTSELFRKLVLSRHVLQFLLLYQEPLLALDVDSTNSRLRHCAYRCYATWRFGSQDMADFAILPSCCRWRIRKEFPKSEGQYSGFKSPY
Protocol: as §1

[3] = biological target: T1, P2X7; experiment: P2X7 antagonism in human whole blood (LPS + Bz-ATP induced IL-1β release, ELISA); assay type: cell-based; conditions: LPS 30 ng/ml, Bz-ATP 1 mM
Protocol: Human blood was collected using a blood donor program. PBMCs were isolated from blood using a Ficoll density gradient technique. Briefly, blood was laid on Ficoll solution and centrifuged at RT for 20 minutes at 2000 rpm. The buffy layer (between red blood cells and plasma) was carefully collected by aspiration, washed with PBS and centrifuged again at 1500 rpm for 15 minutes. The resulting cell pellet was washed and plated on 96 well-plates for experiments. For the Mouse/Human Whole Blood experiments, 150 μl of either mouse or human blood was platted on 96 well-plates. Lipopolysaccharide (LPS) (30 ng/ml) was added to each well and incubated for 1 hour. Test compounds were then added and incubated for 30 minutes. The P2X7 agonist, 2′(3′)-O-(4-benzoylbenzoyl) adenosine 5′ triphosphate (Bz-ATP) was then added at a final concentration of 0.5 mM (PBMC) or 1 mM (blood). Cells were incubated for an additional 1.5 hours. At that point, supernatant was collected and stored for IL-1β assay using manufacturer's protocol for enzyme-linked immunosorbent assay (ELISA). Data was expressed as percent control, where control is defined as the difference in IL-1β release in LPS+Bz-ATP samples and LPS only samples. Data was plotted as response (% control) versus concentration to generate IC50 values.

[4] = biological target: T1, P2X7; experiment: P2X7 antagonism in human PBMCs (LPS + Bz-ATP induced IL-1β release, ELISA); assay type: cell-based; conditions: compound 10 μM, LPS 30 ng/ml, Bz-ATP 0.5 mM;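 note: PBMCs from donor human blood, with a further 1.5 h incubation of the cells in the assay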
[5] = biological target: T1, P2X7; experiment: Radioligand binding, tritiated A-804598, human P2X7-1321N1 cell membranes; conditions: 1 hour at 4° C.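 Note: ki obtained from the binding IC50 after correction for tracer concentration and tracer affinity.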
Protocol: On the day of the experiment, cell membrane preparations were made according to standard published methods. […] The assay was terminated by filtration (GF/B filters pre-soaked with 0.3% PEI) and washed with washing buffer (Tris-HCl 50 mM). The IC50 generated in the binding assay was corrected for tracer concentration and affinity of the tracer to derive at the affinity (Ki) of the test compounds.

Sequence of rat P2X7 (Q64663 whole entry): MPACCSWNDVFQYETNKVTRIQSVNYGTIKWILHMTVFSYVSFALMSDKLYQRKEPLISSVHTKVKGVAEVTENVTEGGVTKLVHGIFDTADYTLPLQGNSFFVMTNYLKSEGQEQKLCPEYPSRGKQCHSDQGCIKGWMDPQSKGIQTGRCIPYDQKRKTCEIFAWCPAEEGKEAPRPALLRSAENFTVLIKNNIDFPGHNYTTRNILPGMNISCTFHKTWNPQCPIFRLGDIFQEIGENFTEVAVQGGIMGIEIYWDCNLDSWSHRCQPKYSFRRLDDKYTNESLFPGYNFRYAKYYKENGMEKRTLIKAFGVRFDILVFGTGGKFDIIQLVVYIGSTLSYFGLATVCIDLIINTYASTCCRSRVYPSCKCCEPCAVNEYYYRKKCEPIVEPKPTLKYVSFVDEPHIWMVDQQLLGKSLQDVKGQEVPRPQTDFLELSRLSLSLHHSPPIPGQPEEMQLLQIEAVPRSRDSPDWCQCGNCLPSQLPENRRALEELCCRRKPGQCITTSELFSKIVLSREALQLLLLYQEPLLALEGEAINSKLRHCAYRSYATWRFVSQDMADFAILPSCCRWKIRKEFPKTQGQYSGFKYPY

Row | SMILES | IC50 [1] | IC50 [2] | IC50 [3] | PBMC 10 μM (% control) [4] | Ki [5]
1 | O=C(c1cccc(C(F)(F)F)c1F)N1CCc2c(nnn2-c2ncccn2)C1 [Example 66, 5-{[2-Fluoro-3-(trifluoromethyl)phenyl]carbonyl}-1-pyrimidin-2-yl-4,5,6,7-tetrahydro-1H-[1,2,3]triazolo[4,5-c]pyridine] | 206 nM | 17.4 nM | 363 nM | 2.7 % control | 15.8 nM
2 | O=C(c1cccc(Cl)c1Cl)N1CCc2c(nnn2-c2ncccn2)C1 [Example 67, 5-[(2,3-Dichlorophenyl)carbonyl]-1-pyrimidin-2-yl-4,5,6,7-tetrahydro-1H-[1,2,3]triazolo[4,5-c]pyridine] | 78.9 nM | 3 nM | 158 nM | 6.5 % control | 7.9 nM
3 | O=C(c1cccc(Cl)c1Cl)N1CCc2c(nnn2-c2cnccn2)C1 [Example 70, 5-[(2,3-Dichlorophenyl)carbonyl]-1-pyrazin-2-yl-4,5,6,7-tetrahydro-1H-[1,2,3]triazolo[4,5-c]pyridine] | 1330 nM | 7.5 nM | 501 nM | 10.6 % control | 12.6 nM
4 | CC1CN(C(=O)c2cccc(C(F)(F)F)c2Cl)Cc2nnn(-c3ccc(F)cc3)c21 (stereo not drawn) [Example 246, (2-Chloro-3-(trifluoromethyl)phenyl)(1-(4-fluorophenyl)-7-methyl-6,7-dihydro-1H-[1,2,3]triazolo[4,5-c]pyridin-5(4H)-yl)methanone] | 6530 nM | 230 nM |  | −3.1 % control | 174 nM
5 | Cc1cncc(-n2nnc3c2CCN(C(=O)c2cccc(C(F)(F)F)c2Cl)C3C)n1 (stereo not drawn) [Example 251, (2-Chloro-3-(trifluoromethyl)phenyl)(4-methyl-1-(6-methylpyrazin-2-yl)-6,7-dihydro-1H-[1,2,3]triazolo[4,5-c]pyridin-5(4H)-yl)methanone] | 9110 nM | 124 nM |  | 11.6 % control | 144 nM
6 | Cc1ccnc(-n2nnc3c2CCN(C(=O)c2cccc(C(F)(F)F)c2Cl)C3C)n1 (stereo not drawn) [Example 252, (2-Chloro-3-(trifluoromethyl)phenyl)(4-methyl-1-(4-methylpyrimidin-2-yl)-6,7-dihydro-1H-[1,2,3]triazolo[4,5-c]pyridin-5(4H)-yl)methanone] | 22.3 nM | 18.8 nM |  | −0.8 % control | 28.2 nM
7 | COc1cccnc1-n1nnc2c1CCN(C(=O)c1cccc(C(F)(F)F)c1Cl)C2C (stereo not drawn) [Example 260, (2-Chloro-3-(trifluoromethyl)phenyl)(1-(3-methoxypyridin-2-yl)-4-methyl-6,7-dihydro-1H-[1,2,3]triazolo[4,5-c]pyridin-5(4H)-yl)methanone] | 6930 nM | 27 nM |  | 1.4 % control | 35.5 nM
8 | CC1Cc2c(-c3ccnn3C)nn(C)c2CN1C(=O)c1cccc(C(F)(F)F)c1Cl (stereo not drawn) [Example 266, (2-chloro-3-(trifluoromethyl)phenyl)(1,5-dimethyl-3-(1-methyl-1H-pyrazol-5-yl)-4,5-dihydro-1H-pyrazolo[3,4-c]pyridin-6(7H)-yl)methanone] | 12.6 nM | 12.7 nM |  | 5.8 % control | 20 nM
9 | CC1Cc2c(-c3ccn[nH]3)n[nH]c2CN1C(=O)c1cccc(C(F)(F)F)c1Cl (stereo not drawn) [Example 267, (2-chloro-3-(trifluoromethyl)phenyl)(5-methyl-3-(1H-pyrazol-5-yl)-4,5-dihydro-1H-pyrazolo[3,4-c]pyridin-6(7H)-yl)methanone] | 9.5 nM | 8.1 nM |  | −50.8 % control | 10 nM
10 | O=C(c1ccc(Cl)cc1F)N1CCc2c(nnn2-c2cnccn2)C1 [Example 272, (4-chloro-2-fluorophenyl)(1-(pyrazin-2-yl)-6,7-dihydro-1H-[1,2,3]triazolo[4,5-c]pyridin-5(4H)-yl)methanone] | 3020 nM | 622 nM |  | −7.6 % control | 100 nM
11 | CC1c2nnn(-c3cnccn3)c2CCN1C(=O)c1cccc(C(F)(F)F)c1F (stereo not drawn) [Example 273, (2-fluoro-3-(trifluoromethyl)phenyl)(4-methyl-1-(pyrazin-2-yl)-6,7-dihydro-1H-[1,2,3]triazolo[4,5-c]pyridin-5(4H)-yl)methanone] | 83.2 nM | 7.6 nM |  | −2.1 % control | 18.2 nM
12 | CC1c2nnn(-c3cnccn3)c2CCN1C(=O)c1ccc(Cl)cc1F (stereo not drawn) [Example 274, (4-chloro-2-fluorophenyl)(4-methyl-1-(pyrazin-2-yl)-6,7-dihydro-1H-[1,2,3]triazolo[4,5-c]pyridin-5(4H)-yl)methanone] | 1880 nM | 74.5 nM |  | −4.8 % control | 41.7 nM
13 | CC1c2nnn(-c3ncccn3)c2CCN1C(=O)c1ccc(Cl)cc1F (stereo not drawn) [Example 275, (4-chloro-2-fluorophenyl)(4-methyl-1-(pyrimidin-2-yl)-6,7-dihydro-1H-[1,2,3]triazolo[4,5-c]pyridin-5(4H)-yl)methanone] | 673 nM | 46.9 nM |  | −8.3 % control | 24.5 nM
14 | Cc1c(C(=O)N2CCc3c(nnn3-c3cnccn3)C2)cccc1C(F)(F)F [Example 276, (2-methyl-3-(trifluoromethyl)phenyl)(1-(pyrazin-2-yl)-6,7-dihydro-1H-[1,2,3]triazolo[4,5-c]pyridin-5(4H)-yl)methanone] | 869 nM | 6.4 nM |  | −0.9 % control | 5.8 nM
15 | Cc1c(C(=O)N2CCc3c(nnn3-c3cnccn3)C2C)cccc1C(F)(F)F (stereo not drawn) [Example 278, (4-methyl-1-(pyrazin-2-yl)-6,7-dihydro-1H-[1,2,3]triazolo[4,5-c]pyridin-5(4H)-yl)(2-methyl-3-(trifluoromethyl)phenyl)methanone] | 92.3 nM | 7.2 nM |  | −19.5 % control | 12.6 nM
16 | C[C@H]1c2nnn(-c3cncnc3)c2CCN1C(=O)c1cccc(C(F)(F)F)c1Cl [Example 333, (S)-(2-chloro-3-(trifluoromethyl)phenyl)(4-methyl-1-(pyrimidin-5-yl)-6,7-dihydro-1H-[1,2,3]triazolo[4,5-c]pyridin-5(4H)-yl)methanone] | > 10000 nM | 101 nM |  | 6.9 % control | 63.1 nM

Results, then the molecule that gave them:

Row | IC50 [1] | IC50 [2] | IC50 [3] | PBMC 10 μM (% control) [4] | Ki [5] | SMILES
17 | 438 nM | 8.6 nM |  | −16.9 % control | 11.5 nM | CC1c2nnn(-c3cnccn3)c2CCN1C(=O)c1ccc(Cl)cc1Cl (stereo not drawn) [Example 279, (2,4-dichlorophenyl)(4-methyl-1-(pyrazin-2-yl)-6,7-dihydro-1H-[1,2,3]triazolo[4,5-c]pyridin-5(4H)-yl)methanone]
18 | 1230 nM | 568 nM |  | 3.4 % control | 63.1 nM | O=C(c1ccc(Cl)cc1F)N1CCc2c(nnn2-c2ncccn2)C1 [Example 280, (4-chloro-2-fluorophenyl)(1-(pyrimidin-2-yl)-6,7-dihydro-1H-[1,2,3]triazolo[4,5-c]pyridin-5(4H)-yl)methanone]
19 | 163 nM | 3.1 nM |  | −1.9 % control | 2.3 nM | Cc1c(C(=O)N2CCc3c(nnn3-c3ncccn3)C2)cccc1C(F)(F)F [Example 281, (2-methyl-3-(trifluoromethyl)phenyl)(1-(pyrimidin-2-yl)-6,7-dihydro-1H-[1,2,3]triazolo[4,5-c]pyridin-5(4H)-yl)methanone]
20 | 192 nM | 4.7 nM |  | −6.3 % control | 6.3 nM | CC1c2nnn(-c3ncccn3)c2CCN1C(=O)c1ccc(Cl)cc1Cl (stereo not drawn) [Example 283, (2,4-dichlorophenyl)(4-methyl-1-(pyrimidin-2-yl)-6,7-dihydro-1H-[1,2,3]triazolo[4,5-c]pyridin-5(4H)-yl)methanone]
21 | 20200 nM | 171 nM |  | −1.8 % control | 398 nM | Cc1cc(C)nc(-n2nnc3c2CCN(C(=O)c2cccc(C(F)(F)F)c2Cl)C3C)c1 (stereo not drawn) [Example 300, (2-chloro-3-(trifluoromethyl)phenyl)(1-(4,6-dimethylpyridin-2-yl)-4-methyl-6,7-dihydro-1H-[1,2,3]triazolo[4,5-c]pyridin-5(4H)-yl)methanone]
22 | 14.3 nM | 11.6 nM |  | −2.8 % control | 31.6 nM | Cc1cccc(-n2nnc3c2CCN(C(=O)c2cccc(C(F)(F)F)c2Cl)C3C)n1 (stereo not drawn) [Example 302, (2-chloro-3-(trifluoromethyl)phenyl)(4-methyl-1-(6-methylpyridin-2-yl)-6,7-dihydro-1H-[1,2,3]triazolo[4,5-c]pyridin-5(4H)-yl)methanone]
23 | 3720 nM | 217 nM |  | −9.5 % control | 631 nM | CCc1nc2c(n1-c1ccccc1)CCN(C(=O)c1cccc(Cl)c1Cl)C2 [Example 332, (2,3-dichlorophenyl)(2-ethyl-1-phenyl-6,7-dihydro-1H-imidazo[4,5-c]pyridin-5(4H)-yl)methanone]
24 | 2160 nM | 289 nM |  | −0.5 % control | 372 nM | Cc1ccc(-n2nnc3c2CCN(C(=O)c2cccc(Cl)c2Cl)C3C)nc1 (stereo not drawn) [Example 336, (2,3-dichlorophenyl)(4-methyl-1-(5-methylpyridin-2-yl)-6,7-dihydro-1H-[1,2,3]triazolo[4,5-c]pyridin-5(4H)-yl)methanone]
